Assay results published in patent US11192851B2, “Crystal of L-alanyl-L-glutamine and method for producing same” (KYOWA HAKKO BIO CO., LTD., priority 2016, dated 2021).
Residues, ends and D or L forms follow the SMILES beside them.

Columns and labels:
Format in all cases: physicochemical
[1] = Loose specific volume of crystals (50 mL measuring cylinder, two-stage funnel); settings: crystal powder
Description: The loose specific volume refers to a value obtained by dividing volume occupied by a powder by the mass of the powder when a container is filled with the powder and the mass of the powder is measured. A crystal with a low loose specific volume is excellent in filling properties, and easy to handle in various processing steps, and also its transportation cost is low. Therefore, the loose specific volume is preferably low. The loose specific volume can be measured by a method comprising: dropping crystals to a 50 mL glass measuring cylinder via a two-stage glass funnel to make the volume of the crystal to be about 45 mL, and measuring the weight of the crystals. A value obtained by dividing the measured volume of the crystal by the weight is determined to be the loose specific volume.

[2] = Dense specific volume of crystals (after tapping the cylinder 100 times); settings: crystal powder, after tapping 100 times
Description: The dense specific volume refers to a value obtained by dividing volume of a powder by the mass of the powder, when a container is filled with the powder and the mass of the powder is measured and then a given impact is applied to the container. The dense specific volume can be measured by a method comprising: dropping a crystal to a 50 mL glass measuring cylinder via a two-stage glass funnel to make the volume of the crystal to be about 45 mL; measuring the weight of the crystal; then tapping the measuring cylinder up and down for 100 times; and measuring the volume occupied by the crystal. A value obtained by dividing the measured volume of the crystal by the weight thereof is determined to be the dense specific volume.

[3] = Angle of repose (Multi Tester MT-1001T); settings: crystal powder, sieve 1.18 mm, vibration width 0.7 to 0.8 mm
Description: The angle of repose refers to an angle formed by a generating line of a cone formed with a powder when the powder is allowed to gently fall onto the horizontal plane through a kind of funnel and a horizontal plane.
[Measurement Conditions for Angle of Repose]
Vibration width: 0.7 to 0.8 mm
The angle-of-repose table is rotated without being given vibration, angles are read at three sites, and an arithmetic mean value of the angles is determined to be the angle of repose.

[4] = Angle of rupture (Multi Tester MT-1001T); settings: crystal powder, after three impacts
Text: The angle of rupture refers to an angle formed by a generating line of a cone, formed when a given impact is indirectly applied to a cone formed with a powder by allowing the powder to gently fall onto the horizontal plane through a kind of funnel, and a horizontal plane.
[Specific Example of Measurement Method for Angle of Rupture]
The operation is repeated for three times. Angles are read at three sites by a method similar to the measurement method for the angle of repose, and an arithmetic mean value of the angles is determined to be the angle of rupture.

[5] = Drying loss (water content of crystal by thermal analysis, TG/DTA); settings: water content in the crystals as loss on drying of the thermal analysis
Description: The crystal of L-alanyl-L-glutamine can be confirmed to be a crystal of nonhydrate when the water content, which is measured by using a thermal analysis according to a method described in the following measurement example, is generally 3.0 wt % or less, preferably 2.5 wt % or less, and more preferably 2.0 wt % or less.
[Measurement Example of Water Content of Crystal according to Thermal Analysis]
Used equipment: EXSTAR 6000 TG/DTA 6200 (manufactured by Seiko Instruments Inc.)
Measurement conditions: Temperature increases from 20° C. to 30° C. at 20° C./min→Hold for 15 minutes at 30° C.→Temperature increases from 30° C. to 250° C. at 5° C./min
Nitrogen flow rate: 300 mL/min
About the known crystal obtained by the method described in Japanese Patent No. 4931801 and the crystals of L-alanyl-L-glutamine nonhydrate of the present invention obtained in Examples 10 to 12, the results, which measured in terms of the loose specific volume, the dense specific volume, the angle of repose, the angle of rupture, and the water content in the crystals as loss on drying of the thermal analysis, are shown in Table 17.

Row | SMILES | Loose specific volume [1] [mL/g] | Dense specific volume [2] [mL/g] | Angle of repose [3] [°] | Angle of rupture [4] [°] | Drying loss [5] [%]
1 | C[C@H](N)C(=O)N[C@@H](CCC(N)=O)C(=O)O [Example 12, L-alanyl-L-glutamine nonhydrate] (H-Ala-Gln-OH) | 3.07 | 2.37 | 44.7 | 41.4 | 0.3
2 | CCO.C[C@H](N)C(=O)N[C@@H](CCC(N)=O)C(=O)O [Example 4 (25° C. vacuum drying), L-alanyl-L-glutamine n-ethanolate] (H-Ala-Gln-OH) | 3.23 | 2.32 | 39.4 | 35.1 | –
3 | C[C@H](N)C(=O)N[C@@H](CCC(N)=O)C(=O)O [Example 5, L-alanyl-L-glutamine nonhydrate] (H-Ala-Gln-OH) | 2.60 | 2.28 | 40.2 | 34.7 | –
4 | C[C@H](N)C(=O)N[C@@H](CCC(N)=O)C(=O)O [Patent No. 4931801 (nonhydrate), L-alanyl-L-glutamine nonhydrate, reference compound] (H-Ala-Gln-OH) | 5.27 | 2.66 | 50.9 | 46.0 | 0.2
5 | C[C@H](N)C(=O)N[C@@H](CCC(N)=O)C(=O)O [Example 11, L-alanyl-L-glutamine nonhydrate] (H-Ala-Gln-OH) | 3.65 | 2.84 | 42.8 | 38.0 | 1.9
6 | CCO.C[C@H](N)C(=O)N[C@@H](CCC(N)=O)C(=O)O [Example 2 (95° C. vacuum drying), L-alanyl-L-glutamine n-ethanolate] (H-Ala-Gln-OH) | 2.47 | 1.88 | 41.2 | 35.0 | –
7 | CCO.C[C@H](N)C(=O)N[C@@H](CCC(N)=O)C(=O)O [Example 1, L-alanyl-L-glutamine n-ethanolate] (H-Ala-Gln-OH) | 2.55 | 2.08 | 39.7 | 34.6 | –
8 | C[C@H](N)C(=O)N[C@@H](CCC(N)=O)C(=O)O [Example 10, L-alanyl-L-glutamine nonhydrate] (H-Ala-Gln-OH) | 3.69 | 2.59 | 46.4 | 39.5 | 1.9
9 | C[C@H](N)C(=O)N[C@@H](CCC(N)=O)C(=O)O.O.O [Example 7, L-alanyl-L-glutamine dihydrate] (H-Ala-Gln-OH) | 3.27 | 2.73 | 43.8 | 38.8 | –
10 | CCO.C[C@H](N)C(=O)N[C@@H](CCC(N)=O)C(=O)O [Example 4 (95° C. vacuum drying), L-alanyl-L-glutamine n-ethanolate] (H-Ala-Gln-OH) | 3.61 | 2.21 | 42.5 | 38.6 | –
